# Results from US9290551B2, “Compounds for treating papilloma virus infection” (NanoVir, LLC, priority 2012, dated 2016).
# Tested on: HPV 16
# Experiment: HPV 16 episome DNA levels in W12E cells by Q-PCR (Taqman)
# Type: cell-based, Human papilloma virus
# Conditions: not given
# Protocol: Cells maintaining HPV 16 DNA were cultured for 72 hours in the presence of cidofovir, interferon γ or polyamide. Viral DNA was then quantified using real-time PCR and compared to vehicle (DMSO)-treated control cultures.
# Compounds were initially tested for effects on HPV 16 episome DNA levels in W12E cells by Q-PCR (Taqman™) over 3 concentration ranges (0.1, 1 and 10 μM). W12E cells are a cervical keratinocyte cell line originally identified by M. Stanley (Cambridge University), and later optimized and provided by P. Lambert (U. of Wisconsin). […] In all cases (initial tests and follow-up IC50 tests), dose testing was performed in triplicate. […] Furthermore, all experiments were conducted in triplicate, multiple times. The data were then combined, pseudo or effective IC50 values calculated, and variance determined to reveal the fit of the data to the model and its reliability.
# Keratinocytes that maintain HPV 16 episomes were treated with increasing concentrations of polyamides.
row,Compound,antiviral activity in this study
1,"CN(CCCN)CCCNC(=O)CCNC(=O)c1cc(NC(=O)c2cc(NC(=O)c3cc(NC(=O)c4cc(NC(=O)c5cc(NC(=O)[C@H](N)CCNC(=O)c6cc(NC(=O)c7cc(NC(=O)c8cc(NC(=O)c9cc(NC(=O)c%10nccn%10C)cn9C)cn8C)cn7C)cn6C)cn5C)cn4C)cn3C)cn2C)cn1C [Polyamide 1006, ImPPPPγNH2PPPPPβTa]",inactive

# Same assay, conditions: effective (pseudo) IC50; 50% reduction in HPV DNA relative to vehicle (0.1% DMSO); read-out: HPV-16 IC50
row,Compound,IC50 [µM]
1,ImPPPPγPPPPPβTa-FITC [Polyamide 1007],> 10
2,"CN(C)CCCNC(=O)CCNC(=O)c1cc(NC(=O)c2cc(NC(=O)c3cc(NC(=O)c4cc(NC(=O)c5cc(NC(=O)CCCNC(=O)c6cc(NC(=O)c7nc(NC(=O)c8nc(NC(=O)CCNC(=O)c9nccn9C)cn8C)cn7C)cn6C)cn5C)cn4C)cn3C)cn2C)cn1C [Polyamide 1016, ImβIIPγPPPPPβDp]",> 10
3,"CN(CCCN)CCCNC(=O)CCNC(=O)c1cc(NC(=O)c2cc(NC(=O)c3cc(NC(=O)c4cc(NC(=O)c5cc(NC(=O)CCCNC(=O)c6cc(NC(=O)c7cc(NC(=O)c8cc(NC(=O)c9cc(NC(=O)c%10nccn%10C)cn9C)cn8C)cn7C)cn6C)cn5C)cn4C)cn3C)cn2C)cn1C [Polyamide 1005, ImPPPPγPPPPPβTa]",> 10
4,"CN(C)CCCNC(=O)CCNC(=O)c1cc(NC(=O)c2nc(NC(=O)c3cc(NC(=O)c4cc(NC(=O)c5nc(NC(=O)CCCNC(=O)c6cc(NC(=O)c7cc(NC(=O)c8nc(NC(=O)CCNC(=O)c9nccn9C)cn8C)cn7C)cn6C)cn5C)cn4C)cn3C)cn2C)cn1C [Polyamide 1018, ImβIPPγIPPIPβDp]",> 10
5,"CN(C)CCCNC(=O)CCNC(=O)CCNC(=O)c1cc(NC(=O)c2cc(NC(=O)c3cc(NC(=O)CCNC(=O)c4cc(NC(=O)c5cc(NC(=O)c6cc(NC(=O)CCCNC(=O)c7cc(NC(=O)c8cc(NC(=O)c9cc(NC(=O)CCNC(=O)c%10cc(NC(=O)c%11cc(NC(=O)c%12cc(NC(=O)c%13nccn%13C)cn%12C)cn%11C)cn%10C)cn9C)cn8C)cn7C)cn6C)cn5C)cn4C)cn3C)cn2C)cn1C [Polyamide 1025, ImPPPβPPPγPPPβPPPββDp]",> 10
6,"CN(C)CCCNC(=O)CCNC(=O)c1cc(NC(=O)c2cc(NC(=O)c3cc(NC(=O)c4nc(NC(=O)CCCNC(=O)c5cc(NC(=O)c6nc(NC(=O)CCNC(=O)c7nccn7C)cn6C)cn5C)cn4C)cn3C)cn2C)cn1C [Polyamide 1014, ImβIPγIPPPβDp]",> 10
7,"CN(C)CCCNC(=O)CCNC(=O)c1cc(NC(=O)c2cc(NC(=O)c3nc(NC(=O)c4cc(NC(=O)c5nc(NC(=O)CCCNC(=O)c6cc(NC(=O)c7nc(NC(=O)c8cc(NC(=O)c9cc(NC(=O)c%10nccn%10C)cn9C)cn8C)cn7C)cn6C)cn5C)cn4C)cn3C)cn2C)cn1C [Polyamide 1019, ImPPIPγIPIPPβDp]",> 10
8,"CN(C)CCCNC(=O)CCNC(=O)c1cc(NC(=O)c2cc(NC(=O)c3cc(NC(=O)c4cc(NC(=O)CCCNC(=O)c5nc(NC(=O)c6cc(NC(=O)c7cc(NC(=O)c8nccn8C)cn7C)cn6C)cn5C)cn4C)cn3C)cn2C)cn1C [Polyamide 1011, ImPPIγPPPPβDp]",> 10
9,"CN(C)CCCNC(=O)CCNC(=O)c1cc(NC(=O)c2cc(NC(=O)c3cc(NC(=O)c4nc(NC(=O)CCCNC(=O)c5cc(NC(=O)c6nc(NC(=O)c7nc(NC(=O)c8nccn8C)cn7C)cn6C)cn5C)cn4C)cn3C)cn2C)cn1C [Polyamide 1012, ImIIPγIPPPβDp]",> 10
10,"CN(C)CCCNC(=O)CCNC(=O)c1cc(NC(=O)c2nc(NC(=O)c3nc(NC(=O)c4cc(NC(=O)CCCNC(=O)c5nc(NC(=O)c6cc(NC(=O)c7cc(NC(=O)c8nccn8C)cn7C)cn6C)cn5C)cn4C)cn3C)cn2C)cn1C [Polyamide 1017, ImPPIγPIIPβDp]",> 10
11,"CN(C)CCCNC(=O)CCNC(=O)c1cc(NC(=O)c2cc(NC(=O)c3cc(NC(=O)CCNC(=O)c4cc(NC(=O)c5cc(NC(=O)c6cc(NC(=O)CCCNC(=O)c7cc(NC(=O)c8cc(NC(=O)CCNC(=O)c9cc(NC(=O)c%10cc(NC(=O)c%11cc(NC(=O)c%12nccn%12C)cn%11C)cn%10C)cn9C)cn8C)cn7C)cn6C)cn5C)cn4C)cn3C)cn2C)cn1C [Polyamide 1002, ImPPPβPPγPPPβPPPβDp]",> 10
12,"CN(C)CCCNC(=O)CCNC(=O)c1cc(NC(=O)c2cc(NC(=O)c3cc(NC(=O)CCNC(=O)c4cc(NC(=O)c5cc(NC(=O)c6cc(NC(=O)CCNC(=O)c7cc(NC(=O)CCNC(=O)CCCNC(=O)c8nc(NC(=O)c9cc(NC(=O)c%10cc(NC(=O)CCNC(=O)c%11cc(NC(=O)c%12nc(NC(=O)c%13cc(NC(=O)CCNC(=O)c%14cc(NC(=O)c%15cc(NC(=O)c%16nccn%16C)cn%15C)cn%14C)cn%13C)cn%12C)cn%11C)cn%10C)cn9C)cn8C)cn7C)cn6C)cn5C)cn4C)cn3C)cn2C)cn1C [Polyamide 1041, ImPPβPIPβPPIγβPβPPPβPPPβDp]",> 10
13,"CN(C)CCCNC(=O)CCNC(=O)c1cc(NC(=O)c2cc(NC(=O)c3cc(NC(=O)c4cc(NC(=O)c5cc(NC(=O)c6cc(NC=O)cn6C)cn5C)cn4C)cn3C)cn2C)cn1C [Polyamide 1039, OHC-PPPPPPβDp]",> 10
14,"CN(C)CCCNC(=O)CCNC(=O)c1cc(NC(=O)c2cc(NC(=O)c3cc(NC(=O)c4cc(NC(=O)CCCNC(=O)c5cc(NC(=O)c6nc(NC(=O)CCNC(=O)c7nccn7C)cn6C)cn5C)cn4C)cn3C)cn2C)cn1C [Polyamide 1015, ImβIPγPPPPβDp]",> 10
15,"CN(C)CCCNC(=O)c1cc(NC(=O)c2cc(NC(=O)CCNC(=O)c3cc(NC(=O)c4cc(NC(=O)c5cc(NC(=O)CCNC(=O)c6cc(NC(=O)c7cc(NC(=O)CCCNC(=O)CCNC(=O)c8cc(NC(=O)c9cc(NC(=O)CCNC(=O)c%10cc(NC(=O)c%11cc(NC(=O)c%12cc(NC(=O)c%13nccn%13C)cn%12C)cn%11C)cn%10C)cn9C)cn8C)cn7C)cn6C)cn5C)cn4C)cn3C)cn2C)cn1C [Polyamide 1056, ImPPPβPPβγPPβPPPβPPDp]",> 10
16,"CN(C)CCCNC(=O)CCNC(=O)c1cc(NC(=O)c2nc(NC(=O)c3cc(NC(=O)c4cc(NC(=O)CCCNC(=O)c5cc(NC(=O)c6cc(NC(=O)c7cc(NC(=O)c8nccn8C)cn7C)cn6C)cn5C)cn4C)cn3C)cn2C)cn1C [Polyamide 1013, ImPPPγPPIPβDp]",> 10
17,"CN(C)CCCNC(=O)CCNC(=O)c1cc(NC(=O)c2cc(NC(=O)c3cc(NC(=O)c4cc(NC=O)cn4C)cn3C)cn2C)cn1C [Polyamide 1038, OHC-PPPPβDp]",> 10
18,"CN(CCCN)CCCNC(=O)CCNC(=O)c1cc(NC(=O)c2cc(NC(=O)c3cc(NC(=O)c4cc(NC(=O)c5cc(NC(=O)[C@H](N)CCNC(=O)c6cc(NC(=O)c7cc(NC(=O)c8cc(NC(=O)c9cc(NC(=O)c%10nccn%10C)cn9C)cn8C)cn7C)cn6C)cn5C)cn4C)cn3C)cn2C)cn1C [Polyamide 1006, ImPPPPγNH2PPPPPβTa]",> 10
19,"CN(C)CCCNC(=O)CCNC(=O)c1cc(NC(=O)c2cc(NC(=O)c3cc(NC(=O)c4cc(NC(=O)c5cc(NC(=O)CCCNC(=O)c6cc(NC(=O)c7cc(NC(=O)c8cc(NC(=O)c9cc(NC(=O)c%10nccn%10C)cn9C)cn8C)cn7C)cn6C)cn5C)cn4C)cn3C)cn2C)cn1C [Polyamide 1010, ImPPPPγPPPPPβDp]",> 10
20,ImPPPPγPPPPPβTa-BOFLX [Polyamide 1008],> 10
21,"CN(C)CCCNC(=O)CCNC(=O)c1cc(NC(=O)c2cc(NC(=O)c3nc(NC(=O)c4cc(NC(=O)CCCNC(=O)c5nc(NC(=O)c6cc(NC(=O)c7nc(NC(=O)c8nccn8C)cn7C)cn6C)cn5C)cn4C)cn3C)cn2C)cn1C [Polyamide 1021, ImIPIγPIPPβDp]",> 10
